Laboratory results published in US10294202B2, “Pyrrolidinones as herbicides” (FMC Corporation, priority 2013, dated 2019).

Columns and labels:
Assay in all cases: Test E preemergence herbicide test
Set-up in all cases: key: 0 = no effect, 100 = complete control
[1] = tested on: soybean; assay type: in vivo, Glycine max
Source text: (§1) Seeds of plant species selected from corn (Zea mays), soybean (Glycine max), velvetleaf (Abutilon theophrasti), lambsquarters (Chenopodium album), wild poinsettia (Euphorbia heterophylla), pigweed, palmer (palmer pigweed, Amaranthus palmeri), waterhemp (common waterhemp, Amaranthus rudis), surinam grass (Brachiaria decumbens), crabgrass, large (large crabgrass, Digitaria sanguinalis), crabgrass, Brazil (Brazilian crabgrass, Digitaria horizontalis), panicum, fall (fall panicum, Panicum dichotomiflorum), foxtail, giant (giant foxtail, Setaria faberii), foxtail, green (green foxtail, Setaria viridis), goosegrass (Eleusine indica), johnsongrass (Sorghum halepense), ragweed (common ragweed, Ambrosia elatior), barnyardgrass (Echinochloa crus-galli), sandbur (southern sandbur, Cenchrus echinatus), arrowleaf […] rhombifolia), ryegrass, Italian (Italian ryegrass, Lolium multiflorum), dayflower, VA (Virginia dayflower, Commelina virginica), field bindweed (Convolvulus arvensis), morningglory (Ipomoea coccinea), nightshade (eastern black nightshade, Solanum ptycanthum), kochia (Kochia scoparia), nutsedge, yellow (yellow nutsedge, Cyperus esculentus), cocklebur (common cocklebur, Xanthium strumarium), smartweed (ladysthumb smartweed, Polygonum Persicaria) and beggarticks (hairy beggarticks, Bidens pilosa), were planted into a silt loam soil and treated preemergence with test chemicals formulated in a non-phytotoxic solvent mixture which included a surfactant. Treated plants and controls were maintained in a greenhouse for 21 days, after which time all species were compared to controls and visually evaluated. Plant response ratings, summarized in Table E, are based on a scale of 0 to 100 where 0 is no effect and 100 is complete control. A dash (-) response means no test result.

[2] = tested on: lambsquarters; assay type: in vivo, Chenopodium album
Source text: as §1

[3] = tested on: surinam grass; assay type: in vivo, Brachiaria decumbens
Source text: as §1

[4] = tested on: barnyardgrass; assay type: in vivo, Echinochloa crus-galli
Source text: as §1

| SMILES | Plant response rating, Soybean ([1]; 16 g ai/ha) | Plant response rating, Soybean ([1]; 31 g ai/ha) | Plant response rating, Soybean ([1]; 62 g ai/ha) | Plant response rating, Soybean ([1]; 125 g ai/ha) | Plant response rating, Soybean ([1]; 250 g ai/ha) | Plant response rating, Lambsquarters ([2]; 16 g ai/ha) | Plant response rating, Lambsquarters ([2]; 31 g ai/ha) | Plant response rating, Lambsquarters ([2]; 62 g ai/ha) | Plant response rating, Lambsquarters ([2]; 125 g ai/ha) | Plant response rating, Lambsquarters ([2]; 250 g ai/ha) | Plant response rating, Surinam Grass ([3]; 16 g ai/ha) | Plant response rating, Surinam Grass ([3]; 31 g ai/ha) | Plant response rating, Surinam Grass ([3]; 62 g ai/ha) | Plant response rating, Surinam Grass ([3]; 125 g ai/ha) | Plant response rating, Surinam Grass ([3]; 250 g ai/ha) | Plant response rating, Barnyardgrass ([4]; 16 g ai/ha) | Plant response rating, Barnyardgrass ([4]; 31 g ai/ha) | Plant response rating, Barnyardgrass ([4]; 62 g ai/ha) | Plant response rating, Barnyardgrass ([4]; 125 g ai/ha) | Plant response rating, Barnyardgrass ([4]; 250 g ai/ha) |
| --- | --- | --- | --- | --- | --- | --- | --- | --- | --- | --- | --- | --- | --- | --- | --- | --- | --- | --- | --- | --- |
| O=C1NCC(c2cccc(Br)c2)C1C(=O)Nc1ccccc1F (stereo not shown) [Compound 66] | 0 | 0 | 0 | 0 | 0 | 0 | 0 | 0 | 0 | 0 | 0 | 0 | 0 | 0 | 35 | 0 | 0 | 20 | 50 | 50 |
| O=C1NCC(c2ccc(C(F)(F)F)cc2)C1C(=O)Nc1ccc(F)c(F)c1F (stereo not shown) [Compound 232] | – | 0 | 0 | 0 | 0 | – | 95 | 98 | 100 | 98 | – | 40 | 50 | 70 | 98 | – | 60 | 70 | 98 | 95 |
| O=C1NCC(c2ccc(F)cc2)C1C(=O)Nc1ccccc1F (racemic) [Compound 16] | 0 | 0 | 0 | 0 | 0 | 0 | 0 | 0 | – | 0 | 0 | 0 | 20 | 35 | 60 | 0 | 0 | 0 | 10 | 70 |
